Numbers after ± are expanded uncertainties. Values belong to the molecule of their own block, whether it stands above or below them.
Key:
[1] = excess molar enthalpy (molar enthalpy of mixing); xn = mol fraction of the nth substance listed; settings: 298.15 K, 101 kPa, Liquid, Calvet calorimetry
[2] = 298.15 K; 101.33 kPa; Liquid; Vibrating tube method
[3] = refractive index (Na D-line) (dimensionless); settings: 298.15 K; 101.33 kPa; Liquid; Standard Abbe refractometry

SMILES: OCc1ccccc1 [benzenemethanol] + CCCCCO
excess molar enthalpy ([1]; x1 = 0.1044): 0.0229 ± 0.000574 kcal/mol
excess molar enthalpy ([1]; x1 = 0.1968): 0.0403 ± 0.000932 kcal/mol
excess molar enthalpy ([1]; x1 = 0.2902): 0.054 ± 0.00122 kcal/mol
excess molar enthalpy ([1]; x1 = 0.3864): 0.0635 ± 0.00141 kcal/mol
excess molar enthalpy ([1]; x1 = 0.4838): 0.0681 ± 0.00151 kcal/mol
excess molar enthalpy ([1]; x1 = 0.5999): 0.0648 ± 0.00143 kcal/mol
excess molar enthalpy ([1]; x1 = 0.6988): 0.0576 ± 0.00129 kcal/mol
excess molar enthalpy ([1]; x1 = 0.7995): 0.0444 ± 0.001 kcal/mol
excess molar enthalpy ([1]; x1 = 0.8992): 0.0253 ± 0.000621 kcal/mol

SMILES: OCc1ccccc1 [benzenemethanol]
mass density [2]: 1041.99 ± 0.26 kg/m3
refractive index [3]: 1.5381 ± 0.0005

SMILES: OCc1ccccc1 [benzenemethanol] + CCO
excess molar enthalpy ([1]; x1 = 0.0746): 0.0175 ± 0.000454 kcal/mol
excess molar enthalpy ([1]; x1 = 0.1514): 0.0312 ± 0.000741 kcal/mol
excess molar enthalpy ([1]; x1 = 0.2275): 0.041 ± 0.000932 kcal/mol
excess molar enthalpy ([1]; x1 = 0.3029): 0.0474 ± 0.00108 kcal/mol
excess molar enthalpy ([1]; x1 = 0.3785): 0.0512 ± 0.00115 kcal/mol
excess molar enthalpy ([1]; x1 = 0.4855): 0.0533 ± 0.0012 kcal/mol
excess molar enthalpy ([1]; x1 = 0.5857): 0.0497 ± 0.00112 kcal/mol
excess molar enthalpy ([1]; x1 = 0.6883): 0.0422 ± 0.000956 kcal/mol
excess molar enthalpy ([1]; x1 = 0.7915): 0.0309 ± 0.000741 kcal/mol
excess molar enthalpy ([1]; x1 = 0.8949): 0.0171 ± 0.000454 kcal/mol

SMILES: OCc1ccccc1 [benzenemethanol] + CCCCO
excess molar enthalpy ([1]; x1 = 0.0976): 0.0203 ± 0.000526 kcal/mol
excess molar enthalpy ([1]; x1 = 0.1973): 0.0356 ± 0.000837 kcal/mol
excess molar enthalpy ([1]; x1 = 0.295): 0.0469 ± 0.00105 kcal/mol
excess molar enthalpy ([1]; x1 = 0.396): 0.0528 ± 0.0012 kcal/mol
excess molar enthalpy ([1]; x1 = 0.4931): 0.0552 ± 0.00124 kcal/mol
excess molar enthalpy ([1]; x1 = 0.6029): 0.0507 ± 0.00115 kcal/mol
excess molar enthalpy ([1]; x1 = 0.7039): 0.0428 ± 0.00098 kcal/mol
excess molar enthalpy ([1]; x1 = 0.8026): 0.0317 ± 0.000741 kcal/mol
excess molar enthalpy ([1]; x1 = 0.9017): 0.0174 ± 0.000454 kcal/mol

SMILES: OCc1ccccc1 [benzenemethanol] + CCCCCCO
excess molar enthalpy ([1]; x1 = 0.0954): 0.025 ± 0.000621 kcal/mol
excess molar enthalpy ([1]; x1 = 0.1959): 0.0473 ± 0.00108 kcal/mol
excess molar enthalpy ([1]; x1 = 0.291): 0.0647 ± 0.00143 kcal/mol
excess molar enthalpy ([1]; x1 = 0.3901): 0.0775 ± 0.0017 kcal/mol
excess molar enthalpy ([1]; x1 = 0.5072): 0.0822 ± 0.00182 kcal/mol
excess molar enthalpy ([1]; x1 = 0.598): 0.0818 ± 0.00179 kcal/mol
excess molar enthalpy ([1]; x1 = 0.6996): 0.074 ± 0.00163 kcal/mol
excess molar enthalpy ([1]; x1 = 0.8022): 0.0576 ± 0.00129 kcal/mol
excess molar enthalpy ([1]; x1 = 0.8986): 0.0348 ± 0.000813 kcal/mol

SMILES: OCc1ccccc1 [benzenemethanol] + CCCO
excess molar enthalpy ([1]; x1 = 0.0984): 0.0116 ± 0.000335 kcal/mol
excess molar enthalpy ([1]; x1 = 0.1964): 0.0202 ± 0.000502 kcal/mol
excess molar enthalpy ([1]; x1 = 0.2873): 0.0255 ± 0.000621 kcal/mol
excess molar enthalpy ([1]; x1 = 0.3999): 0.0295 ± 0.000693 kcal/mol
excess molar enthalpy ([1]; x1 = 0.4987): 0.0284 ± 0.000669 kcal/mol
excess molar enthalpy ([1]; x1 = 0.5993): 0.0256 ± 0.000621 kcal/mol
excess molar enthalpy ([1]; x1 = 0.6983): 0.0207 ± 0.000526 kcal/mol
excess molar enthalpy ([1]; x1 = 0.7996): 0.0147 ± 0.000406 kcal/mol
excess molar enthalpy ([1]; x1 = 0.8988): 0.00772 ± 0.000263 kcal/mol

The remaining lines, values ahead:

mass density [2]: 786.5 ± 0.15 kg/m3
refractive index [3]: 1.3266 ± 0.0005
SMILES: CO [methanol]

mass density [2]: 815.2 ± 0.64 kg/m3
refractive index [3]: 1.4165 ± 0.0006
SMILES: CCCCCCO [hexan-1-ol]

mass density [2]: 799.51 ± 0.12 kg/m3
refractive index [3]: 1.3833 ± 0.0005
SMILES: CCCO [propan-1-ol]

mass density [2]: 785.15 ± 0.12 kg/m3
refractive index [3]: 1.3595 ± 0.0005
SMILES: CCO [ethanol]

excess molar enthalpy ([1]; x1 = 0.07): -0.00363 ± 0.000215 kcal/mol
excess molar enthalpy ([1]; x1 = 0.1388): -0.00798 ± 0.000287 kcal/mol
excess molar enthalpy ([1]; x1 = 0.2057): -0.0136 ± 0.000382 kcal/mol
excess molar enthalpy ([1]; x1 = 0.2728): -0.0189 ± 0.000478 kcal/mol
excess molar enthalpy ([1]; x1 = 0.3404): -0.024 ± 0.000598 kcal/mol
excess molar enthalpy ([1]; x1 = 0.3992): -0.0286 ± 0.000693 kcal/mol
excess molar enthalpy ([1]; x1 = 0.4995): -0.0337 ± 0.000789 kcal/mol
excess molar enthalpy ([1]; x1 = 0.5964): -0.0345 ± 0.000813 kcal/mol
excess molar enthalpy ([1]; x1 = 0.6972): -0.0325 ± 0.000765 kcal/mol
excess molar enthalpy ([1]; x1 = 0.7998): -0.0258 ± 0.000621 kcal/mol
excess molar enthalpy ([1]; x1 = 0.9028): -0.0147 ± 0.000406 kcal/mol
SMILES: OCc1ccccc1 [benzenemethanol] + CO

mass density [2]: 805.75 ± 0.12 kg/m3
refractive index [3]: 1.3974 ± 0.0005
SMILES: CCCCO [butan-1-ol]

mass density [2]: 810.88 ± 0.24 kg/m3
refractive index [3]: 1.4088 ± 0.0005
SMILES: CCCCCO [pentan-1-ol]

— the NIST ThermoML archive (doi:10.1021/je100095p)
